{"source": "patent US9994555B2", "about": "“Chromenone inhibitors of monocarboxylate transporters” (THE SCRIPPS RESEARCH INSTITUTE, priority 2015, dated 2018)"}
{"test_system": "Raji (Burkitt's) lymphoma cells", "test": "MTT assay for 4-day viability of Raji (Burkitt's) lymphoma cells", "type": "cell-based", "settings": "Homo sapiens, 96 h, Raji (Burkitt's) lymphoma cells highly expressing MCT1, estimated EC50 given as bin, read-out: approximate potency (EC50)", "description": "Specific Examples of compounds of the invention, with estimated EC50 values determined using an MTT assay for 4-day viability of Raji (Burkitt's) lymphoma cells, a cell line known to highly express MCT1 and to be sensitive to small molecule MCT inhibitors,^4 are shown in Table 8. Assay protocols follow those described in the literature.^4 Other assays that are not described here but that are standard in the field, such as an assay for competitive inhibition of transport of radiolabeled lactic acid, an MCT substrate, may also be useful in establishing mechanism of action of these compounds.", "units": {"EC50": "nM"}}
{"compound": "O=c1cc(-c2ccccc2)oc2cc(OCc3cccc4ccccc34)cc(OCCCCO)c12", "note": "[Example 29, 5-(4-hydroxybutoxy)-7-(naphthalen-1-ylmethoxy)-2-phenyl-4H-chromen-4-one]", "EC50": "1000 to 10000"}
{"compound": "CC(C)c1cc(=O)c2c(OCc3ccccc3CO)cc(Oc3ccncc3C(F)(F)F)cc2o1", "note": "[Example 17, 5-((2-(hydroxymethyl)benzyl)oxy)-2-isopropyl-7-((3-(trifluoromethyl)pyridin-4-yl)oxy)-4H-chromen-4-one]", "EC50": "≤ 100"}
{"compound": "CC(C)c1cc(=O)c2c(OCc3ccccc3CO)cc(OCc3cccc4cccnc34)cc2o1", "note": "[Example 19, 5-((2-(hydroxymethyl)benzyl)oxy)-2-isopropyl-7-(quinolin-8-ylmethoxy)-4H-chromen-4-one]", "EC50": "≤ 100"}
{"compound": "CC(C)c1cc(=O)c2c(OCCCO)cc(OCc3cccc4ccccc34)cc2o1", "note": "[Example 7, 5-(3-hydroxypropoxy)-2-isopropyl-7-(naphthalen-1-ylmethoxy)-4H-chromen-4-one]", "EC50": "100 to 1000"}
{"compound": "CC(C)c1cc(=O)c2c(CCCCCO)cc(OCc3cccc4ccccc34)cc2o1", "note": "[Example 37, 5-(5-hydroxypentyl)-2-isopropyl-7-(naphthalen-1-ylmethoxy)-4H-chromen-4-one]", "EC50": "1000 to 10000"}
{"compound": "CC(C)c1cc(=O)c2c(OCc3ccccc3CO)cc(Oc3cc(C(F)(F)F)ccn3)cc2o1", "note": "[Example 32, 5-((2-(hydroxymethyl)benzyl)oxy)-2-isopropyl-7-((4-(trifluoromethyl)pyridin-2-yl)oxy)-4H-chromen-4-one]", "EC50": "100 to 1000"}
{"compound": "O=c1cc(C2CC2)oc2cc(OCc3cccnc3C(F)(F)F)cc(OCc3ccccc3CO)c12", "note": "[Example 23, 2-cyclopropyl-5-((2-(hydroxymethyl)benzyl)oxy)-7-((2-(trifluoromethyl)pyridin-3-yl)methoxy)-4H-chromen-4-one]", "EC50": "≤ 100"}
{"compound": "CC(C)c1cc(=O)c2c(OCc3ccccc3CO)cc(OCc3ccc4ncccc4c3)cc2o1", "note": "[Example 21, 5-((2-(hydroxymethyl)benzyl)oxy)-2-isopropyl-7-(quinolin-6-ylmethoxy)-4H-chromen-4-one]", "EC50": "100 to 1000"}
{"compound": "CC(C)c1cc(=O)c2c(N3CCC(CO)CC3)cc(OCc3cccc4ccccc34)cc2o1", "note": "[Example 50, 5-(4-(hydroxymethyl)piperidin-1-yl)-2-isopropyl-7-(naphthalen-1-ylmethoxy)-4H-chromen-4-one]", "EC50": "1000 to 10000"}
{"compound": "CC(C)c1cc(=O)c2c(-c3cccc(CCO)c3)cc(OCc3cccc4ccccc34)cc2o1", "note": "[Example 38, 5-(3-(2-hydroxyethyl)phenyl)-2-isopropyl-7-(naphthalen-1-ylmethoxy)-4H-chromen-4-one]", "EC50": "1000 to 10000"}
{"compound": "CC(C)c1cc(=O)c2c(OCCCO)cc(OCc3ccnc4ccccc34)cc2o1", "note": "[Example 6, 5-(3-hydroxypropoxy)-2-isopropyl-7-(quinolin-4-ylmethoxy)-4H-chromen-4-one]", "EC50": "100 to 1000"}
{"compound": "CC(C)c1cc(=O)c2c(OCc3ccccc3CO)cc(Oc3ccnc4ccccc34)cc2o1", "note": "[Example 9, 5-((2-(hydroxymethyl)benzyl)oxy)-2-isopropyl-7-(quinolin-4-yloxy)-4H-chromen-4-one]", "EC50": "≤ 100"}
{"compound": "CC(C)c1cc(=O)c2c(-c3ccccc3CO)cc(OCc3cccc4ccccc34)cc2o1", "note": "[Example 44]", "EC50": "≥ 10000"}
{"compound": "CC(C)c1cc(=O)c2c(OCc3ccccc3CO)cc(OCc3ccc4ccccc4n3)cc2o1", "note": "[Example 20, 5-((2-(hydroxymethyl)benzyl)oxy)-2-isopropyl-7-(quinolin-2-ylmethoxy)-4H-chromen-4-one]", "EC50": "≤ 100"}
{"compound": "CC(C)c1cc(=O)c2c(OCCCCO)cc(OCc3cccc4ccccc34)cc2o1", "note": "[Example 5, 5-(4-hydroxybutoxy)-2-isopropyl-7-(naphthalen-1-ylmethoxy)-4H-chromen-4-one]", "EC50": "100 to 1000"}
{"compound": "CC(C)c1cc(=O)c2c(NCCCCO)cc(OCc3cccc4ccccc34)cc2o1", "note": "[Example 46, 5-((4-hydroxybutyl)amino)-2-isopropyl-7-(naphthalen-1-ylmethoxy)-4H-chromen-4-one]", "EC50": "1000 to 10000"}
{"compound": "CC(C)c1cc(=O)c2c(Nc3cccc(CO)c3)cc(OCc3cccc4ccccc34)cc2o1", "note": "[Example 49, 5-((3-(hydroxymethyl)phenyl)amino)-2-isopropyl-7-(naphthalen-1-ylmethoxy)-4H-chromen-4-one]", "EC50": "≥ 10000"}
{"compound": "O=c1cc(C2CC2)oc2cc(OCc3cccc4ccccc34)cc(OCc3ccccc3CO)c12", "note": "[Example 22, 2-cyclopropyl-5-((2-(hydroxymethyl)benzyl)oxy)-7-(naphthalen-1-ylmethoxy)-4H-chromen-4-one]", "EC50": "100 to 1000"}
{"compound": "CC(C)c1cc(=O)c2c(-c3ccc(CO)cc3)cc(OCc3cccc4ccccc34)cc2o1", "note": "[Example 45]", "EC50": "1000 to 10000"}
{"compound": "CC(C)c1cc(=O)c2c(NCCCO)cc(OCc3cccc4ccccc34)cc2o1", "note": "[Example 48, 5-((3-hydroxypropyl)amino)-2-isopropyl-7-(naphthalen-1-ylmethoxy)-4H-chromen-4-one]", "EC50": "1000 to 10000"}
